Reference: patent US20220257722A1, “COMPOSITIONS AND METHODS OF TREATING AND PREVENTING SYSTEMIC COMPLICATIONS OF ACUTE ILLNESS” (United States Government As Represented By The Department …, priority 2019, published 2022)

Tests used:
[1] = system: rat jejunal mucosa; assay: LPS mucosal-to-serosal transport in Ussing-chambered rat jejunal mucosa (LAL test); assay type: cell-based; conditions: for inhibitory effect of GLP-2 on LPS transport during OA/TCA exposure: inhibitor serosal 5 min before GLP-2 100 nM + NVP-728 10 μM; for amount of LPS transport at t=15 min (prior to OA/TCA exposure), in presence of GLP-2 + NVP-728: inhibitor serosal before GLP-2 + NVP-728; for OA/TCA-augmented LPS transport (t=30-45 min): mucosal LPS 10 μg/ml + OA 30 mM/TCA 0.1 mM; for OA/TCA-augmented LPS transport (t=30-45 min) / LPS transport at t=15 min (LPS alone, absence of OA/TCA): drug added 10 or 15 min before LPS; for LPS transport at t=15 min (LPS alone, absence of OA/TCA): mucosal LPS 10 μg/ml
Method: Short-circuit current measurements in Ussing chambered preparations. Mucosa-submucosa preparations were prepared from the mid-jejunum (˜20 cm from the pyloric ring) by muscle stripping using fine forceps under a stereomicroscope. Two or four preparations were prepared from one animal. The tissue was then mounted between two hemi-sliders with an aperture=0.3 cm^2 (Physiologic Instruments, San Diego, Calif., USA). Chambers were bathed with serosal and luminal bathing solutions in a volume of 4 ml each, maintained at 37° C. using a water recirculating heating system. The serosal Krebs-Ringer solution contained (in mM) NaCl, 117; KCl, 4.7; MgCl2, 1.2; NaH2PO4, 1.2; CaCl2, 2.5; NaHCO3, 25; glucose, 11; and bubbled with 95% O2-5% CO2 to maintain pH at 7.4. The luminal bathing solution contained NaCl, 136; KCl, 2.6; CaCl2, 1.8; HEPES, 10 (pH 7.0); mannitol, 11; and bubbled with 100% O2. The tissues were short-circuited by a voltage clamp (VCC MC6, Physiologic Instruments) at zero potential difference with automatic compensation for solution resistance. Short-circuit current (Isc) was continuously measured with tissue conductance (Gt) and TEER (Ω·cm^2) determined every 20 sec in order to assess the tissue integrity during the LPS and lipid exposure. The current was recorded by the DataQ system (Physiologic Instruments). IND (10 μM) was added to the serosal bath to eliminate the effects of endogenous prostaglandin production. The tissues were stabilized for ˜30 min before the addition of test chemicals.
LPS movement from mucosal to serosal solution. LPS movement m-to-s was assessed using a LAL test kit (Pierce Chromogenic Endotoxin Quant Kit, Pierce Biotechnology, Rockford, Ill., USA), which eliminates non-specific detection of (1,3)-β-D-glucan, then reduces false-positive LPS measurements. After tissue stabilization, time was set as t=0 min. Fifty μl of the serosal solution was collected at 0 min as a blank sample, followed by collection at t=15, 30 and 45 min. At t=0 min, LPS (10 μg/ml) was added into the mucosal solution. Vehicle (PBS alone), TCA alone (0.1 mM) in PBS or OA (3, 10, 30 mM) with TCA (0.1 mM) in PBS was added into the mucosal solution at t=15 min. The tissues were pretreated with drugs 10 or 15 min before the addition of LPS (i.e. at t=−10 or −15 min). The collected serosal solutions were kept at −80° C. until use. LPS content in the serosal solutions was measured with the LAL test according to the manufacturer's protocol. The value of background at t=0 min was subtracted and the serosal LPS appearance was expressed as Δ[LPS] (EU/ml). In some experiments, FITC-LPS (10 μg/ml) was used instead of LPS. Serosal FITC-LPS content was assessed by FITC fluorescence intensity measurement using a multi-mode microplate reader (Synergy-2, BioTek Instruments, Inc., Winooski, Vt., USA). To detect macromolecule m-to-s movement across the mucosa, FD4 (0.1 mM) was applied into the mucosal bath and serosal FD4 content was assessed by FITC fluorescence intensity measurement.
Ussing chamber study: drug treatment. The following drugs were pretreated by addition to the mucosal (m) or serosal (s) bath 10 or 15 min before LPS addition to the mucosal bath: the lipid raft inhibitor MβCD (1 mM, m), the CD36 inhibitor SSO (0.1 mM, m), the muscarinic agonist CCh (10 μM, s), a competitive substrate for IAP (IAP inhibitor) GP (10 mM, m) (47), GLP-2 (100 nM, s), the dipeptidyl peptidase-4 (DPP4) inhibitor NVP-728 (10 μM, s) (36), the stable GLP-2 analog TDG (100 nM) (13), the insulin-like growth factor-1 (IGF-1) receptor tyrosine kinase inhibitor NVP-AEW-541 (10 μM, s) (22), the epidermal growth factor (EGF) tyrosine kinase inhibitor PD153035 (1 μM, s) (6), the nitric oxide (NO) synthase (NOS) inhibitor L-NAME (0.1 mM, s) and the selective VPAC1 antagonist PG97-269 (1 μM) (26).

[2] = system: rat jejunal mucosa; assay: FITC-LPS mucosal-to-serosal transport in Ussing-chambered rat jejunal mucosa (FITC fluorescence); assay type: cell-based; conditions: mucosal FITC-LPS 10 μg/ml; SSO 0.1 mM or MβCD 1 mM
Method: Short-circuit current measurements in Ussing chambered preparations. Mucosa-submucosa preparations were prepared from the mid-jejunum (˜20 cm from the pyloric ring) by muscle stripping using fine forceps under a stereomicroscope. Two or four preparations were prepared from one animal. The tissue was then mounted between two hemi-sliders with an aperture=0.3 cm^2 (Physiologic Instruments, San Diego, Calif., USA). Chambers were bathed with serosal and luminal bathing solutions in a volume of 4 ml each, maintained at 37° C. using a water recirculating heating system. […] Short-circuit current (Isc) was continuously measured with tissue conductance (Gt) and TEER (Ω·cm^2) determined every 20 sec in order to assess the tissue integrity during the LPS and lipid exposure. The current was recorded by the DataQ system (Physiologic Instruments). […]
LPS movement from mucosal to serosal solution. LPS movement m-to-s was assessed using a LAL test kit (Pierce Chromogenic Endotoxin Quant Kit, Pierce Biotechnology, Rockford, Ill., USA), which eliminates non-specific detection of (1,3)-β-D-glucan, then reduces false-positive LPS measurements. […] LPS content in the serosal solutions was measured with the LAL test according to the manufacturer's protocol. The value of background at t=0 min was subtracted and the serosal LPS appearance was expressed as Δ[LPS] […]

[3] = system: rat jejunal mucosa; assay: LPS mucosal-to-serosal transport in rat jejunal mucosa read by TLR4 reporter cell assay; assay type: cell-based; conditions: same samples as FITC measurement; SSO 0.1 mM or MβCD 1 mM
Method: TLR-4 reporter cell assay. Since the LAL test may overestimate LPS levels due to nonspecific detection of […] (66), and FITC-LPS method measures LPS fluorescence without regard to the functional activity of LPS, experiments were carried out to determine whether the samples contained intact, functional LPS that is a preferential TLR-4 ligand. In order to confirm that intact LPS was measured in the samples used for measurements in the Ussing chamber study, a TLR4 reporter cell assay was used that consists of HEK293 cells co-transfected with murine TLR4, myeloid differentiation 2 and CD14 co-receptor genes and an inducible secreted embryonic alkaline phosphatase (SEAP) reporter gene with nuclear factor-kappa B (NF-kB) and activator protein 1 (AP-1) binding motifs (HEK-Blue mTLR-4, InvivoGen, San Diego, Calif.). Cells were harvested in a 96-well plate with standards and samples for 24 hr. The presence of LPS was detected as induced SEAP activity in the medium using HEK-Blue Detection (InvivoGen) by measuring absorbance at 655 nm with Synergy-2 24 hrs after the addition of standards and samples, according to the manufacturer's protocol. Ultrapure LPS from E. coli 055:B5 (LPS-B5 Ultrapure, InvivoGen) was used as standard at a range of 0.01-100 ng/ml.

[4] = cited from earlier work
[5] = system: murine model of pancreatitis; assay: Cerulein-induced acute pancreatitis in mice: organ cytokines, PV LPS, FD4 uptake, histology; assay type: in vivo, C57BL/6 mice
Method: Methods. Pancreatitis was induced in C57BL/6 male and female mice at 8-10 weeks of age by multiple injections of cerulein (50 μg/kg, ip, hourly, 8 times). Samples (e.g., PV and abdominal arterial blood) were collected 0, 18, and 24 hrs after the final injection of cerulein. Tissues were removed and stored for histology and real-time polymerase chain reaction (PCR)-based expression analysis. TDG, (500 μg/kg, ip) was given 0 and 18 hrs after the final injection of cerulein, followed by sampling 24 hrs after the final injection of cerulein. Proinflammatory cytokines was assessed by real-time PCR; PV LPS levels were measured using the limulus amebocyte lysate (LAL) test.

[6] = 24 hrs after cerulein treatment

Row | Compound | inhibitory effect of GLP-2 on LPS transport during OA/TCA exposure [1] | amount of LPS transport at t=15 min (prior to OA/TCA exposure), in presence of GLP-2 + NVP-728 [1] | OA/TCA-increased serosal LPS content measured by FITC fluorescence intensity [2] | LPS m-to-s transport during OA/TCA exposure by TLR4 reporter cell assay [3] | OA/TCA-augmented LPS transport (t=30-45 min) [1] | LPS transport at t=15 min (LPS alone, absence of OA/TCA) [1] | other results
1 | COC(=O)[C@@H](N)CCCNC(=N)N[N+](=O)[O-] [L-NAME, Nω-nitro-L-arginine methyl ester] | reversed | no effect |  |  |  |  | 
2 | CCCCCCCC/C=C\CCCCCCCC(=O)ON1C(=O)CC(S(=O)(=O)O)C1=O (centres unmarked) [SSO, sulfosuccinimidyl oleate] |  |  | abolished | abolished | abolished | no effect | 
3 | CC[C@H](C)[C@H](NC(=O)[C@H](Cc1ccccc1)NC(=O)[C@H](CC(=O)O)NC(=O)[C@H](CCCNC(=N)N)NC(=O)[C@H](C)NC(=O)[C@H](C)NC(=O)[C@H](CC(C)C)NC(=O)[C@H](CC(N)=O)NC(=O)[C@H](CC(=O)O)NC(=O)[C@H](CC(C)C)NC(=O)[C@@H](NC(=O)[C@@H](NC(=O)[C@H](CC(N)=O)NC(=O)[C@H](CCSC)NC(=O)[C@H](CCC(=O)O)NC(=O)[C@H](CC(=O)O)NC(=O)[C@H](CO)NC(=O)[C@H](Cc1ccccc1)NC(=O)[C@H](CO)NC(=O)CNC(=O)[C@H](CC(=O)O)NC(=O)CNC(=O)[C@@H](N)Cc1c[nH]cn1)[C@@H](C)O)[C@@H](C)CC)C(=O)N[C@@H](CC(N)=O)C(=O)N[C@@H](Cc1c[nH]c2ccccc12)C(=O)N[C@@H](CC(C)C)C(=O)N[C@H](C(=O)N[C@@H](CCC(N)=O)C(=O)N[C@H](C(=O)N[C@@H](CCCCN)C(=O)N[C@H](C(=O)N[C@H](C(=O)N[C@@H](CC(=O)O)C(=O)O)[C@@H](C)O)[C@@H](C)CC)[C@@H](C)O)[C@@H](C)CC [TDG] |  |  |  |  | inhibited |  | elimination half-life ([4]; in humans): about 2 hours; serum t1/2 ([4]; reference [44]): ~2 h; PV LPS levels ([5]; 18 and 24 hrs after cerulein treatment, LAL test, TDG 500 μg/kg ip): significantly reduced; PV FD4 levels ([5]; 18 and 24 hrs after cerulein treatment, TDG 500 μg/kg ip): significantly reduced; histological changes in the pancreas [5, 6]: no effect; lung inflammation (histology) [5, 6]: reduced; Plasma TNFα levels ([5]; 24 hrs after cerulein treatment, TDG 500 μg/kg ip): reversed; increased expression of IL-1β and IL-6 in the pancreas ([5]; TDG 500 μg/kg ip 0 and 18 hrs after final cerulein): no effect; elevated lipase levels ([5]; TDG 500 μg/kg ip 0 and 18 hrs after final cerulein, plasma): no effect; inflammatory cytokine expression in the lung ([5]; TDG 500 μg/kg ip 0 and 18 hrs after final cerulein, sampling 24 hrs, real-time PCR): significantly reduced
4 | [Ac-His^1, D-Phe^2, Lys^15, Arg^16, Leu^27]-VIP(1-7)-GRF(8-27) (HFDAVFTNSYRKVLKRLSARKLLQDIL; HELM PEPTIDE1{[ac].H.[dF].D.A.V.F.T.N.S.Y.R.K.V.L.K.R.L.S.A.R.K.L.L.Q.D.I.L.[am]}$$$$V2.0; SMILES CC[C@H](C)[C@H](NC(=O)[C@H](CC(=O)O)NC(=O)[C@H](CCC(N)=O)NC(=O)[C@H](CC(C)C)NC(=O)[C@H](CC(C)C)NC(=O)[C@H](CCCCN)NC(=O)[C@H](CCCNC(=N)N)NC(=O)[C@H](C)NC(=O)[C@H](CO)NC(=O)[C@H](CC(C)C)NC(=O)[C@H](CCCNC(=N)N)NC(=O)[C@H](CCCCN)NC(=O)[C@H](CC(C)C)NC(=O)[C@@H](NC(=O)[C@H](CCCCN)NC(=O)[C@H](CCCNC(=N)N)NC(=O)[C@H](Cc1ccc(O)cc1)NC(=O)[C@H](CO)NC(=O)[C@H](CC(N)=O)NC(=O)[C@@H](NC(=O)[C@H](Cc1ccccc1)NC(=O)[C@@H](NC(=O)[C@H](C)NC(=O)[C@H](CC(=O)O)NC(=O)[C@@H](Cc1ccccc1)NC(=O)[C@H](Cc1c[nH]cn1)NC(C)=O)C(C)C)[C@@H](C)O)C(C)C)C(=O)N[C@@H](CC(C)C)C(N)=O) [PG97-269] | reversed | no effect |  |  |  |  | 
5 | methyl-β-cyclodextrin [MβCD] |  |  | abolished | abolished | inhibited | no effect | 
